Assay [1] concerns the target T1, FKBP51FK1 (Homo sapiens, UniProt Q13451).
T1 sequence (Q13451 42-130 limits assumed): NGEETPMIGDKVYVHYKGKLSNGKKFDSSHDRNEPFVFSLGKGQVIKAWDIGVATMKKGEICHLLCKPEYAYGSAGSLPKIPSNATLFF
Put plainly: biochemical. Here is the method: (§1) All macrocyclic compounds were tested in a competitive fluorescence polarization assay for binding towards FKBP51 as well as the homologs FKBP12, FKBP12.6 and FKBP52 (Table 1).
(§2) Example 8: […] of the Macrocyclic FKBP51 Ligands by SPPS

The target in assay [2] is FKBP12 (Homo sapiens, UniProt P62942). As to the kind of experiment: competitive fluorescence polarization assay, binding to FKBP12. The protocol: as §1, §2
Assay [3] concerns the target FKBP12.6 (Homo sapiens, UniProt P68106). Put plainly: competitive fluorescence polarization assay, binding to FKBP12.6. The protocol:
as §1, §2

Setting [4] is: Ki [nM] FKBP51FK1, Table 1, competitive Fluorescence Polarization Assay.
The mark [5] stands for this setting: Table 1, competitive Fluorescence Polarization Assay, read-out: Ki [nM] FKBP12.
Where [6] appears, read: Table 1, competitive Fluorescence Polarization Assay, read-out: Ki [nM] FKBP12.6.

Experimental findings from US11834463B2, “High affinity macrocyclic FKB51-inhibitors for treatment of psychiatric disorders” (priority 2020, dated 2023) are described below.

SMILES strings stand for the structures. Read-outs that look alike come from different tables or passages of the source.

A word on the Ki: it is a dissociation constant, usually derived from enzyme kinetics or from competition with a known ligand.

Chain of FKBP12.6 (P68106 whole entry): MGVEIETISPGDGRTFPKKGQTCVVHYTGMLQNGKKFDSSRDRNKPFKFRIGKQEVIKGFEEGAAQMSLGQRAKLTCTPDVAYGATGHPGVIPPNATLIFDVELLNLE
Chain of FKBP12 (P62942 whole entry): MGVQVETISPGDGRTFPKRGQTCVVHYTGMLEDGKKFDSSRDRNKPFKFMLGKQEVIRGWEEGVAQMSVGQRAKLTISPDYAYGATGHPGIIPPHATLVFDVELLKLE

With `COc1ccc(CC[C@H]2OC(=O)[C@@H]3CCCCN3C(=O)[C@@H](C3CCCCC3)NC(=O)CCNC(=O)COc3cccc2c3)cc1OC` [Compound 93, (2R,5S,12R)-12-cyclohexyl-2-[2-(3,4-dimethoxyphenyl)ethyl]-3,20-dioxa-10,13,17-triazatricyclo[19.3.1.0^5,10]pentacosa-1(25),21,23-triene-4,11,14,18-tetrone], in assay [1], the “affinity (in words)” value is reported as “reduced affinity”. Further, the Ki is 7.4 µM in assay [1] (FKBP51FK1 Ki [μM], Table 2, [a] standard error from three, [c] error from two independent measurements); > 80000 nM in assay [2] (Table 2, read-out: FKBP12 Ki); > 80000 nM in assay [3] (Table 2, read-out: FKBP12.6 Ki).
As for `COc1ccc(CC[C@H]2OC(=O)[C@@H]3CCCCN3C(=O)[C@@H](C3CCCCC3)c3cc(OC)c(c(OC)c3)OC/C=C\COc3cccc2c3)cc1OC` [31-(Z)], the figures for the Ki in assay [1] (setting [4]), in assay [2] (setting [5]) and in assay [3] (setting [6]) were 0.07 µM, 261 nM and 328 nM, respectively.
As to `COc1ccc(CC[C@H]2OC(=O)[C@@H]3CCCCN3C(=O)[C@@H](C3CCCCC3)c3cc(OC)c(OC)c(c3)OCCCOCCCCOc3cccc2c3)cc1OC` [Compound 46], the Ki in assay [1] (setting [4]) is 0.08 µM; in assay [2] (setting [5]), 449 nM; in assay [3] (setting [6]), 116 nM.
The corresponding values for `COc1ccc(CC[C@H]2OC(=O)[C@@H]3CCCCN3C(=O)[C@@H](C3CCCCC3)c3cc(OC)c(c(OC)c3)OC/C=C/COc3cccc2c3)cc1OC` [31-(E)] are 0.056 µM, 289 nM and 263 nM.
On the same counts, the results for `COc1ccc(CC[C@H]2OC(=O)[C@@H]3CCCCN3C(=O)[C@@H](C3CCCCC3)c3cc(OC)c(OC)c(c3)OCCOCCCCOc3cccc2c3)cc1OC` [Compound 45] are 0.048 µM, 123 nM and 84 nM.
In the case of `COc1ccc(CC[C@H]2OC(=O)[C@@H]3CCCCN3C(=O)[C@@H](C3CCCCC3)NC(=O)[C@H](C)NC(=O)COc3cccc2c3)cc1OC` [Compound 91, (2R,5S,12R,15S)-12-cyclohexyl-2-[2-(3,4-dimethoxyphenyl)ethyl]-15-methyl-3,19-dioxa-10,13,16-triazatricyclo[18.3.1.0^5,10]tetracosa-1(24),20,22-triene-4,11,14,17-tetrone], the “affinity (in words)” value in assay [1] was “bound more weakly”. The Ki in assay [2] (Table 2, read-out: FKBP12 Ki) was > 80000 nM; in assay [3] (Table 2, read-out: FKBP12.6 Ki), > 80000 nM.
Turning to `COc1ccc(CC[C@H]2OC(=O)[C@@H]3CCCCN3C(=O)[C@@H](C3CCCCC3)c3cc(OC)c(OC)c(c3)OCCOC/C=C/COc3cccc2c3)cc1OC` [37-(E)], the results for the Ki in assay [1] (setting [4]), in assay [2] (setting [5]) and in assay [3] (setting [6]) were 0.046 µM, 182 nM and 74 nM, respectively.
As to `COc1ccc(CC[C@H]2OC(=O)[C@@H]3CCCCN3C(=O)[C@@H](C3CCCCC3)NC(=O)[C@@H]3CCCN3C(=O)COc3cccc2c3)cc1OC` [Compound 92, (9S,12R,19S,22R)-12-cyclohexyl-22-[2-(3,4-dimethoxyphenyl)ethyl]-2,21-dioxa-5,11,14-triazatetracyclo[21.3.1.0^5,9.0^14,19]heptacosa-1(26),23(27),24-triene-4,10,13,20-tetrone], the “affinity (in words)” value in assay [1] is recorded as “substantially reduced affinity”. The Ki is > 80000 nM in assay [2] (Table 2, read-out: FKBP12 Ki) and > 80000 nM in assay [3] (Table 2, read-out: FKBP12.6 Ki).
Take `COc1ccc(CC[C@H]2OC(=O)[C@@H]3CCCCN3C(=O)[C@@H](C3CCCCC3)c3cc(OC)c(OC)c(c3)OCCCOc3cccc2c3)cc1OC` [Compound 58]: the figures for the Ki in assay [1] (setting [4]), in assay [2] (setting [5]) and in assay [3] (setting [6]) were 0.054 µM, 401 nM and 87 nM, respectively.
As for `COc1ccc(CC[C@H]2OC(=O)[C@@H]3CCCCN3C(=O)[C@@H](C3CCCCC3)c3cc(OC)c(OC)c(c3)OCCOCC(=O)CCOc3cccc2c3)cc1OC` [Compound 62], the values for the inhibition constant Ki in assay [1] (setting [4]), in assay [2] (setting [5]) and in assay [3] (setting [6]) were 0.023 µM, 39 nM and 57 nM, respectively.
The corresponding values for `COc1ccc(CC[C@H]2OC(=O)[C@@H]3CCCCN3C(=O)[C@@H](C3CCCCC3)c3cc(OC)c(c(OC)c3)OCCCOc3cccc2c3)cc1OC` [Compound 56] are 0.067 µM, 384 nM and 211 nM.
As to `COc1ccc(CCC2OC(=O)C3CCCCN3C(=O)C(C3CCCCC3)c3cc(OC)c(OC)c(c3)OC/C=C/COc3cccc2c3)cc1OC` (stereo not shown) [35-(E)], the Ki in assay [1] (Ki FKBP51FK1, Table 1, unit μM printed in the cell) was > 5 µM; in assay [2] (Table 1, unit μM printed in the cell, read-out: Ki FKBP12), > 100000 nM; in assay [3] (Table 1, unit μM printed in the cell, read-out: Ki FKBP12.6), > 100000 nM.
On to `COc1ccc(CCC2OC(=O)C3CCCCN3C(=O)C(C3CCCCC3)c3cc(OC)c(OC)c(c3)OCC(O)C(O)COc3cccc2c3)cc1OC` (single isomer, unassigned) [Compound 64a], for which the Ki in assay [1] (setting [4]) worked out at 0.004 µM; in assay [2] (setting [5]) it was 23 nM; in assay [3] (setting [6]), 10 nM.
On the same counts, the results for `COc1ccc(CCC2OC(=O)C3CCCCN3C(=O)C(C3CCCCC3)c3cc(OC)c(OC)c(c3)OC/C=C\COc3cccc2c3)cc1OC` (stereo not shown) [35-(Z)] are 0.093 µM, 173 nM and 192 nM.
In the case of `COc1ccc(CC[C@H]2OC(=O)[C@@H]3CCCCN3C(=O)[C@@H](C3CCCCC3)NC(=O)C3(CCC3)NC(=O)COc3cccc2c3)cc1OC` [Compound 87, (2′R,5'S,12′R)-12′-cyclohexyl-2′-[2-(3,4-dimethoxyphenyl)ethyl]-3′, 19′-dioxa-10′, 13′, 16′-triazaspiro[cyclobutane-1,15′-tricyclo[18.3.1.0^5,10° ]tetracosane]-1′(24′),20′, 22′-triene-4′, 11′, 14′, 17′-tetrone], the Ki was 0.4 µM in assay [1] (affinity, same values as Table 2 FKBP51FK1); > 80000 nM in assay [2] (Table 2, read-out: FKBP12 Ki); > 80000 nM in assay [3] (Table 2, read-out: FKBP12.6 Ki).
On to `COc1cccc([C@@H](CCc2ccc(OC)c(OC)c2)OC(=O)[C@@H]2CCCCN2C(=O)[C@H](c2cc(OC)c(OC)c(OC)c2)C2CCCCC2)c1` [Compound A1, reference compound], for which the results for the Ki in assay [1] (setting [4]), in assay [2] (setting [5]) and in assay [3] (setting [6]) were 0.094 µM, 222 nM and 199 nM, respectively.
The corresponding values for `COc1ccc(CC[C@H]2OC(=O)[C@@H]3CCCCN3C(=O)[C@@H](C3CCCCC3)c3cc(OC)c(c(OC)c3)OCC(O)C(O)COc3cccc2c3)cc1OC` (mixture of isomers) [Compound 63] are 0.011 µM, 97 nM and 83 nM.
The corresponding values for `COc1ccc(CC[C@H]2OC(=O)[C@@H]3CCCCN3C(=O)[C@@H](C3CCCCC3)c3cc(OC)c(OC)c(c3)OCCOC/C=C\COc3cccc2c3)cc1OC` [37-(Z)] are 0.113 µM, 270 nM and 190 nM.
As for `COc1ccc(CC[C@H]2OC(=O)[C@@H]3CCCCN3C(=O)[C@@H](C3CCCCC3)c3cc(OC)c(c(OC)c3)OCCCCOc3cccc2c3)cc1OC` [Compound 39], the figures for the Ki in assay [1] (setting [4]), in assay [2] (setting [5]) and in assay [3] (setting [6]) were 0.053 µM, 159 nM and 191 nM, respectively.
The corresponding values for `COc1ccc(CC[C@H]2OC(=O)[C@@H]3CCCCN3C(=O)[C@@H](C3CCCCC3)c3cc(OC)c(OC)c(c3)OCCCCCOc3cccc2c3)cc1OC` [Compound 44] are 0.043 µM, 88 nM and 65 nM.
The corresponding values for `COc1ccc(CCC2OC(=O)C3CCCCN3C(=O)C(C3CCCCC3)c3cc(OC)c(OC)c(c3)OCC(O)C(O)COc3cccc2c3)cc1OC` (single isomer, unassigned) [Compound 64b] are 0.013 µM, 34 nM and 17 nM.
The corresponding values for `COc1ccc(CC[C@H]2OC(=O)[C@@H]3CCCCN3C(=O)[C@@H](C3CCCCC3)c3cc(OC)c(c(OC)c3)OCCOc3cccc2c3)cc1OC` [Compound 55] are 0.064 µM, 412 nM and 190 nM.
